Experimental data from patent US20090022803A1, “Oral Formulations For Delivery of Catecholic Butanes Including Ndga Compounds” (priority 2005, published 2009).

Assay: Stability of M4N formulations at room temperature (time to crystallized precipitation)
Type: physicochemical
Description: A 10 mL solution of M4N at a concentration of about 10 mg/mL in 40% BP-β-CD was made as follows. About 10 mL of the 40% HP-β-CD solution were added to a glass beaker containing a stir bar. The beaker was placed on a magnetic plate and the stir bar was set to stir at medium speed. About […] of M4N were slowly added to the 40% HP-β-CD in the center of the beaker with the aid of a spatula. The M4N/40% HP-β-CD mixture was stirred for 2 hr or until all M4N was uniformly suspended without any clumps being present. The M4N/40% HP-β-CD mixture was optionally heated at 80° C. for about 30 min. (or longer if a larger volume of solution was desired, for example, 1 hr at 80° C. for 100 mL of the M4N/HP-β-CD mixture), or longer as needed to ensure complete dissolution of M4N. […] The final M4N/40% HP-β-CD solution was stored at room temperature and was kept protected from light. This process may be scaled up or down to obtain the requisite volume or concentration of M4N. Formulations containing M4N in other cyclodextrin solutions may be similarly made, such as, for example, by substituting HP-β-CD in the process described above with other cyclodextrins.
A 100 mL solution of M4N at a concentration of about 25 mg/mL in PEG 300 was made as follows. About 100 mL of PEG 300 were added to a glass beaker containing a stir bar. The beaker was placed on a magnetic plate and the stir bar was set to stir at medium speed. About 2.5 g of M4N were slowly added to the PEG 300 in the center of the beaker with the aid of a spatula to prevent M4N from sticking to the beaker wall. The M4N/PEG 300 mixture was stirred for 24 hr or until all M4N had dissolved or was uniformly suspended without any clumps being present. The M4N/PEG 300 mixture was optionally heated at about 60° C. for about 30 min. (or longer if a larger volume of solution was desired, for example, 1 hr at 60° C. for 500 mL of the M4N/PEG 300 mixture), or longer as needed to ensure complete dissolution of M4N. […] If crystals formed, the M4N/PEG 300 solution could be heated again at 60° C. for about 1 hr, with stirring, on a hot magnetic plate until all M4N was dissolved back in solution. The final M4N/PEG 300 solution was stored at room temperature and was kept protected from light. This process may be scaled up or down to obtain the requisite volume or concentration of M4N. Formulations containing M4N in other PEGs may be similarly made, such as, for example, by substituting PEG 300 in the process described above with PEG 400 or PEG 400 monolaurate.
Formulations containing M4N in other water-insoluble lipids combined with non-ionic, ionic or amphipathic surfactants or water-soluble organic solvents may be similarly made, such as, for example, by substituting sesame oil in the process described above with corn oil, olive oil, soybean oil, peppermint oil, or mineral oil and substituting Tween® 20 with Tween® 80, TPGS, lecithin, PEG 300, PEG 400, PEG 400 monolaurate, glycerol, PVP, PG, or other solubilizing agents, and combinations thereof. Stability in reference to the clear liquid solutions herein refers to the time it takes to form crystallized precipitation in solution. A stable solution is one that is clear and free of particulates for an extended period of time.

COc1ccc(C[C@@H](C)[C@@H](C)Cc2ccc(OC)c(OC)c2)cc1OC [Formulation M4N, meso-1,4-bis(3,4-dimethoxyphenyl)-2,3-dimethylbutane]
Stability at Room Temperature (M4N 1 mg/mL suspension in 50% HP-β-CD, 0.5% CMC): >7 days | Stability Time at Room Temperature (M4N 2.4 mg/mL, Sesame Oil, Tween ® 20 and Glycerol, 10% Oil emulsion in 90% saline): <1 days | Stability Time at Room Temperature (M4N 2.9 mg/mL, Sesame Oil and Tween ® 20, 10% Oil emulsion in 90% saline): <3 days | Stability at Room Temperature (M4N 3.13 mg/mL in 5% HP-β-CD, 12.5% PEG 300 (v/v)): <7 days | Stability at Room Temperature (M4N 4.17 mg/mL in 6.7% HP-β-CD, 16.7% PEG 300 (v/v)): >7 days | Stability at Room Temperature (M4N 6.25 mg/mL in 10% HP-β-CD, 25% PEG 300 (v/v)): >7 days | Stability at Room Temperature (M4N 10 mg/mL in 30% HP-β-CD): <3 days | Stability at Room Temperature (M4N 10 mg/mL in 32% HP-β-CD, 20% PEG 400 (v/v)): >7 days | Stability at Room Temperature (M4N 10 mg/mL in 50% HP-β-CD): >7 days | Stability at Room Temperature (M4N 10 mg/mL in 50% HP-β-CD in saline): >7 days | Stability Time at Room Temperature (M4N 10 mg/mL in Peppermint Oil): >3 days | stable at room temperature (M4N 10 mg/mL in Tween® 20): more than 7 days | stable at room temperature (M4N 10 mg/mL in Tween® 80): more than 3 days | Stability at Room Temperature (M4N 12.5 mg/mL in 12.5% HP-β-CD, 50% PEG 300 (v/v)): <1 days | Stability at Room Temperature (M4N 12.5 mg/mL in 12.5% HP-β-CD, 50% PEG 400 (v/v)): <1 days | Stability at Room Temperature (M4N 12.5 mg/mL in 15% HP-β-CD, 50% PEG 300 (v/v)): <7 days | Stability at Room Temperature (M4N 12.5 mg/mL in 15% HP-β-CD, 50% PEG 400 (v/v)): <3 days | Stability at Room Temperature (M4N 12.5 mg/mL in 20% HP-β-CD, 50% PEG 300 (v/v)): >7 days | Stability at Room Temperature (M4N 12.5 mg/mL in 20% HP-β-CD, 50% PEG 400 (v/v)): <7 days | Stability at Room Temperature (M4N 12.5 mg/mL in 30% HP-β-CD, 25% PEG 400 (v/v)): >7 days | Stability at Room Temperature (M4N 12.9 mg/mL in 23% HP-β-CD, 43% PEG 400 (v/v)): >7 days | Stability at Room Temperature (M4N 12.9 mg/mL in 23% HP-β-CD, 43 PEG 300 (v/v)): >7 days | Stability at Room Temperature (M4N 13.3 mg/mL in 27% HP-β-CD, 33% PEG 300 (v/v)): >7 days | Stability at Room Temperature (M4N 13.3 mg/mL in 27% HP-β-CD, 33% PEG 400 (v/v)): >7 days | stable at room temperature (M4N 20 mg/mL in Tween® 20): more than 7 days | Stability at Room Temperature (M4N 20 mg/mL suspension in 50% HP-β-CD, 0.5% CMC): >7 days | Stability Time at Room Temperature (M4N 24.3 mg/mL in 75% Sesame Oil, 9% Tween ® 20, 16% Glycerol): <7 days | Stability Time at Room Temperature (M4N 29 mg/mL in 89% Sesame Oil, 11% Tween ® 20): >7 days | Stability Time at Room Temperature (M4N 40 mg/mL in 50% Peppermint Oil, 50% Tween ® 20): >3 days | stable at room temperature (M4N 40 mg/mL in Tween® 20): less than 3 days | Stability Time at Room Temperature (M4N 50 mg/mL in Camillia Oil): >7 days | Stability Time at Room Temperature (M4N 50 mg/mL in Mineral Oil): <1 days | stable at room temperature (M4N 50 mg/mL in Tween® 80): less than 1 day | Stability Time at Room Temperature (M4N 60 mg/mL in 50% Peppermint Oil, 50% Tween ® 20): >3 days | Stability Time at Room Temperature (M4N 60 mg/mL in Peppermint Oil): <3 days | Stability at Room Temperature (M4N 60 mg/mL suspension in 50% HP-β-CD, 0.5% CMC): >7 days | stable at room temperature (M4N 80 mg/mL in Tween® 20): less than 3 days | Stability Time at Room Temperature (M4N 100 mg/mL in Peppermint Oil): <1 days | Stability Time at Room Temperature (M4N 125 mg/mL in Peppermint Oil): <1 days | stability of the suspension at room temperature (M4N in glycerol monooleate (Glymo), heated to 60° C., cooled): remained stable for two weeks | stable at room temperature (M4N up to 60 mg/mL in 50% Tween® 20 and 50% PEG 400): more than 3 days | Stability Time at Room Temperature (PEG 400 mono-laurate 100%, M4N 20 mg/mL): >3 days | Stability Time at Room Temperature (PEG 400 mono-laurate 100%, M4N 50 mg/mL): <1 days | Stability Time at Room Temperature (Propylene Glycol 100% (w/v), M4N 1 mg/mL): <1 days | Stability Time at Room Temperature (Propylene Glycol 100% (w/v), M4N 10 mg/mL): <1 days | Stability Time at Room Temperature (Propylene Glycol 100% (w/v), M4N 20 mg/mL): <1 days | Stability at Room Temperature (TPGS 20% (w/v), M4N 60 mg/ml, suspension): >3 days | Stability at Room Temperature (TPGS 20% (w/v), M4N 100 mg/ml, suspension): >3 days
